Series [1] has as its system male mice. Nature of the series: Scanning electron microscopy (SEM) of sperm morphology. Particulars: protocol 2 at 63 days, n = 3. The format is in vivo. The text has this:
Fig. 4. CDD-2807 treatment induces a reversible contraceptive effect. […] Fertility was restored to levels equal to those of controls after halting CDD-2807 treatment for 3 weeks in protocol 1; in protocol 2, fertility was restored an average of 53.5 ± 5.1 days after completion of CDD-2807 treatment compared to the controls (3.5 ± 0.2 days). (C) There are no observed morphological differences in testes from control and CDD-2807 treatment in mice from protocol 2 at 63 days; testis size of CDD-2807–treated mice in protocol 2 (87.13 ± 5.87 mg) was not statistically changed versus control males (111.10 ± 6.50 mg). […] (H) For SEM quantification, a minimum of 100 sperm per group were counted and determined to be either normal or abnormal (having head or tail defects). Counts were totaled and then turned into a percentage of normal versus abnormal sperm per group. By SEM analysis, 94.7 ± 2.7% of the sperm in the CDD-2807–treated mice (n = 3) in protocol 2 had morphologic defects at 63 days, including head and tail defects as shown, compared to only 10.9 ± 2.7% abnormal sperm for the controls (n = 3). Scale bars: 0.5 cm (C), […] (H). **P < 0.01, ***P < 0.001, ****P < 0.0001.

A short description of series [2]: CDD-2807 concentrations in mouse brain, liver, lung, and testis. The format is in vivo, mice. On the procedure: Pharmacokinetics (PK) of CDD-2807 in mice. The pharmacokinetic studies (72) of CDD-2807 were performed at three doses via intraperitoneal (i.p.) injection and oral (p.o.) administration.
CDD-2807 was dissolved in 10% Captisol containing 5% DMSO to prepare the solutions of 0.5 mg/mL, 2.5 mg/mL and 5.0 mg/mL. Twelve male mice (strain: C57BL/6NJ, 8−12 weeks) were divided equally and randomly into 4 groups (n = 3 for each dose). One group of mice were administered 5 mg/kg CDD-2807 (i.p., 10 µL/g of 0.5 mg/mL solution), the second group 25 mg/kg CDD-2807 (i.p., 10 µL/g of 2.5 mg/mL solution), the third group 5 mg/kg CDD-2807 (p.o., 10 µL/g of 0.5 mg/mL solution), and the fourth group 50 mg/kg CDD-2807 (p.o., 10 µL/g of 5.0 mg/mL solution). At 0, 5, 10, 15, 30 min, 1, 2, 4, 6, 8, 24 h post-dose, around 20 µL of blood was collected from the tail vein and anti-coagulated by heparin. The blood samples were centrifuged at 2000 g for 3 min at 4°C, and the plasma samples were transferred to tubes and stored at −80°C before analysis. All the samples were analyzed by the Thermo TSQ Quantis MS coupled with a Thermo Vanquish UHPLC (San Jose, CA). CDD-2807 was separated on a Luna C18 column (1 mm × 50 mm, 1.6 µm, Phenomenex, Torrance, CA), and eluted by a water-acetonitrile mobile phase system (both containing 0.1% formic acid, v/v) at the flow rate of 0.15 mL/min. CDD-2807 was monitored under the SRM mode coupled with a positive ESI source. The SRM ion pairs were 447→321 for CDD-2807. The ion spray voltage was set at 3500 V. High-purity nitrogen was used as the sheath gas (35 arbitrary unit), auxiliary gas (7 arbitrary unit), and high-purity argon was used as the collision gas. The temperatures of the ion transfer tube and the vaporizer were set at 300°C and 275°C, respectively. The concentration of CDD-2807 in plasma was quantified using individual calibration curves. The calibration curve was regressed with a weight of 1/x2 with high linearity (r2 >0.99). PK parameters, including half-time (t1/2), area under the plasma concentration– time curve from zero to infinity (AUC0–∞), clearance normalized by the bioavailability (CL/F), volume of distribution normalized by the bioavailability (Vd/F), and the mean residence time (MRT), were calculated by WinNonlin software (Certara, Princeton, NJ) by noncompartmental […]
analysis. […]
CDD-2807 concentrations in mouse brain, liver, lung, and testis. Tissue samples harvested from mice on day 45 of protocol 1 and at 24-hour, day 7, and day 63 of protocol 2 were weighed and snap-frozen in liquid nitrogen. The samples were stored at −80°C before analysis. Twenty-five mg of tissue was homogenized in 150 µL of 50% CH3OH, and 50 µL of homogenate was added to 200 µL of ice-cold CH3OH containing 0.1 µM of agomelatine (internal standard). The mixture was vortexed and centrifuged at 15000 g for 15 min, and supernatants were transferred into sample vials for analysis. CDD-2807 was analyzed by the same method used in the pharmacokinetic study. The concentration of CDD-2807 in the testis and brain was determined by […]
using individual calibration curves established with the corresponding tissue homogenates from untreated mice. The calibration curve was regressed with a weight of 1/x2 with high linearity (r2 […]
Spatial distribution of CDD-2807 in testis. The testis from the mice treated with CDD-2807 were attached to the Leica CM3050 S cryostat (Leica Biosystems, Deer Park, IL) with water and then sectioned at the thickness of 10 μm at −20°C. The sections were attached to electrically conductive glass slides coated with indium tin oxide ([…], 70-100 ohms, Delta Technologies, Loveland, CO). Tissue sections were sprayed with a matrix solution containing 35 mg/mL 2,5-dihydroxybenzoic acid (DHB, Sigma, St. Louis, MO) in 70% aqueous CH3OH with 0.1% trifluoroacetic acid using an HTX TM-Sprayer (HTX Technologies LLC, Carrboro, NC). Sprayer nozzle temperature was set at 70°C, tray temperature at 40°C, nozzle velocity at 1200 mm/min, […]

In the case of `O=C(c1ccc2[nH]nc(C#Cc3ccccc3-c3ccccc3)c2c1)N1CC2(CCCNC2)C1` [CDD-2807], the “sperm with morphologic defects (abnormal sperm) by SEM” value in series [1] is given as 94.7 ± 2.7%. In series [2] (C57/129 hybrid, mouse, testis, intraperitoneal, 50 mg/kg/day over 7 days), this compound returned a concentration at 7 day of around 24000 ng/g. Further, in series [2] (male, C57/129 hybrid, mouse, testis, ip, protocol 1 (15 mg/kg i.p. twice per day), day 45), the concentration at 45 day turned out to be 89600 ± 14100 ng/g. In addition, the concentration at 63 day in series [2] (male, C57/129 hybrid, mouse, testis, ip, protocol 2 (50 mg/kg i.p. once per day), day 63) turned out to be 114000 ± 7900 ng/g. The CDD-2807 in brain in series [2] (protocol 1, day 45, collection 12 hours after dosing) was 0.28 ± 0.09 ng of CDD-2807 per milligram of tissue; in series [2] (protocol 2, day 63, collection 24 hours after dosing) it was “undetectable”. Also, in series [2] (protocol 1 and 2 mice), the CDD-2807 in lung result was “low levels”.

The values above are taken from paper PMC11842024, “Reversible male contraception by targeted inhibition of serine/threonine kinase 33” (Science (New York, N.Y.), 2024).
